From the CheMixHub ionic liquid set

Assay: xn = mol fraction of the nth substance listed

CC[n+]1ccn(C)c1.[Br-] + C[NH2+]CCC=C1c2ccccc2CCc2ccccc21.[Cl-] + O
viscosity [mPa·s], 100 kPa
Settings | 288.15 K | 298.15 K | 308.15 K | 318.15 K
x2 = 0, x1 = 0.0001802 | 1.141 | 0.911 | 0.744 | 0.627
x2 = 0, x1 = 0.0007203 | 1.147 | 0.916 | 0.748 | 0.632
x2 = 0, x1 = 0.00126 | 1.152 | 0.923 | 0.754 | 0.639

CCCC[N+](CCCC)(CCCC)CCCC.O=S(=O)([O-])O + Cc1ncc(C[n+]2csc(CCO)c2C)c(N)n1.Cl.[Cl-] + O
viscosity [mPa·s], 101 kPa
Settings | 298.15 K | 308.15 K | 318.15 K
x2 = 0.0003644, x1 = 0.0003601 | 0.9075 | 0.7352 | 0.6088
x2 = 0.0003645, x1 = 9.006e-05 | 0.9037 | 0.7314 | 0.605
x2 = 0.000365, x1 = 0.0001801 | 0.905 | 0.7327 | 0.6062
x2 = 0.0003656, x1 = 0.0002701 | 0.9062 | 0.7339 | 0.6075
x2 = 0.0006576, x1 = 0.0001801 | 0.9165 | 0.7418 | 0.6142
x2 = 0.0006584, x1 = 9.003e-05 | 0.9153 | 0.7406 | 0.6129
x2 = 0.0006587, x1 = 0.00027 | 0.918 | 0.7431 | 0.615
x2 = 0.0006597, x1 = 0.00036 | 0.919 | 0.7443 | 0.6167
x2 = 0.0009539, x1 = 9.001e-05 | 0.9257 | 0.7497 | 0.6208
x2 = 0.0009554, x1 = 0.00018 | 0.93 | 0.751 | 0.62
x2 = 0.0009567, x1 = 0.0003599 | 0.9295 | 0.7535 | 0.6246
x2 = 0.0009569, x1 = 0.00027 | 0.9283 | 0.7522 | 0.6234
x2 = 0.001253, x1 = 8.998e-05 | 0.9373 | 0.7589 | 0.6288
x2 = 0.001255, x1 = 0.0001799 | 0.9386 | 0.7602 | 0.63
x2 = 0.001255, x1 = 0.0002699 | 0.9398 | 0.7614 | 0.6313
x2 = 0.001257, x1 = 0.0003598 | 0.9411 | 0.7626 | 0.6326
x2 = 0.001555, x1 = 8.995e-05 | 0.9478 | 0.7692 | 0.6355
x2 = 0.001556, x1 = 0.0001799 | 0.9491 | 0.7705 | 0.6368
x2 = 0.001558, x1 = 0.0002698 | 0.95 | 0.7717 | 0.64
x2 = 0.001561, x1 = 0.0003597 | 0.9516 | 0.773 | 0.6393
x2 = 0.001859, x1 = 8.992e-05 | 0.9569 | 0.7784 | 0.6425
x2 = 0.00186, x1 = 0.0001798 | 0.9582 | 0.7797 | 0.6438
x2 = 0.001863, x1 = 0.0002697 | 0.9594 | 0.7809 | 0.6451
x2 = 0.001866, x1 = 0.0003596 | 0.9607 | 0.7822 | 0.6464

C[NH+](C)C.O=S(=O)([N-]S(=O)(=O)C(F)(F)F)C(F)(F)F + N#CCCCC#N
101 kPa, x1 = 0.2167
Settings | viscosity [mPa·s]
288 K | 15.76
298 K | 11.43
318 K | 6.747
353 K | 3.452

CC(=O)[O-].CN1CCCN2CCC[NH+]=C12 + O
101.3 kPa
Settings | viscosity [mPa·s]
278.2 K, x1 = 0.405 | 1800
283.2 K, x1 = 0.103 | 33
283.2 K, x1 = 0.206 | 204
283.2 K, x1 = 0.494 | 1496
283.2 K, x1 = 0.604 | 1825
293.2 K, x1 = 0.405 | 378
298.2 K, x1 = 0.301 | 144.9
298.2 K, x1 = 0.494 | 339.1
303.2 K, x1 = 0.301 | 99.8
303.2 K, x1 = 0.604 | 259.2
308.2 K, x1 = 0.206 | 32.5
308.2 K, x1 = 0.301 | 70.9
313.2 K, x1 = 0.301 | 51.8
313.2 K, x1 = 0.494 | 109
318.2 K, x1 = 0.301 | 39.02
318.2 K, x1 = 0.494 | 79.4
323.2 K, x1 = 0.604 | 66.33
333.2 K, x1 = 0.206 | 10.12
338.2 K, x1 = 0.494 | 28.19
343.2 K, x1 = 0.103 | 2.76
353.2 K, x1 = 0.301 | 8.98
358.2 K, x1 = 0.103 | 1.97
358.2 K, x1 = 0.206 | 4.58
358.2 K, x1 = 0.604 | 14.29
363.2 K, x1 = 0.604 | 12.16
368.2 K, x1 = 0.103 | 1.62
368.2 K, x1 = 0.604 | 10.46
373.2 K, x1 = 0.103 | 1.5
373.2 K, x1 = 0.301 | 5.14
373.2 K, x1 = 0.604 | 9.11

CC(=O)[O-].Cn1cc[nH+]c1 + O
Settings | electrical conductivity [S/m] | viscosity [mPa·s]
293.15 K, 101.3 kPa, x2 = 0.0705 | 0.905 | –
293.15 K, 101.3 kPa, x2 = 0.1339 | 1.176 | –
293.15 K, 101.3 kPa, x2 = 0.8407 | 8.771 | –
293.15 K, 101.3 kPa, x2 = 0.9035 | 6.875 | –
298.15 K, 101 kPa, x1 = 0.0051 | 1.17 | –
298.15 K, 101 kPa, x1 = 0.0151 | 2.49 | –
298.15 K, 101 kPa, x2 = 0.9502 | 3.87 | –
298.15 K, 101 kPa, x2 = 0.98 | 2.71 | –
303.15 K, 101 kPa, x2 = 0 | – | 5.91
313.15 K, 101 kPa, x2 = 0 | – | 4.395
